Laboratory results published in PMC10779086, “3-O-Methyltolcapone and Its Lipophilic Analogues Are Potent Inhibitors of Transthyretin Amyloidogenesis with High Permeability and Low Toxicity” (International Journal of Molecular Sciences, 2023).
Values joined by “and” are separate entries in the source; they are usually repeats but may differ in a detail not shown here. Equal entries are not always repeated.

Key:
[1] = Chromatographic Hydrophobicity Index (CHI); format: physicochemical
From the text: The assay is a chromatographic fast gradient reversed-phase method which allows to characterize the lipophilicity of compounds in high throughput screening regime at three different pH values (2.0; 7.4; 10.5). The so defined CHI is obtained from the gradient (buffer/Acetonitrile) retention time after calibrating the chromatographic system with a test mixture of ten known standard compounds. For most compounds, CHI is between 0 and 100 and it approximates the percentage (by volume) of acetonitrile required to achieve an equal distribution of compound between the mobile and the lipophilic stationary phase of a C18 chromatographic column. Compounds that are not retained on the column are assigned to a CHI value < 0, which means very low lipophilicity. For highly lipophilic compounds, which are strongly retained by the column, a CHI value of >100 is assigned. For any value in between, the actual CHI value is calculated based on the calibration line of the reference compounds [49].

[2] = system: HepG2 human liver cancer cell line; experiment: Cytotoxicity in HepG2 cells (ATP viability assay); format: cell-based; conditions: 48 h
Experimental: Compounds were dissolved at the concentration of 50 mM in DMSO.
DMSO normalisation at 1.0% was performed in each well.
Cell viability was evaluated by measuring ATP levels using CellTiter Glo (Promega Cat.n. G7570) according to manufacturer’s instructions.

[3] = Caco-2 intestinal permeability; format: in vitro ADME, human; conditions: human; for efflux ratio at 60 min, 10 μM: Caco-2, pH 7.4, without inhibitor, read-out: Efflux Ratio (Papp BA/Papp AB); for Papp A→B at 60 min, 10 μM / Papp B→A at 60 min, 10 μM: Caco-2, pH 7.4
Experimental: Caco-2 cells (cod. HTB-37) were bought from ATCC (American Type Culture Collection, Rockville, MD, USA). Caco-2 cells were cultured for 21 days on a 24 trans-well plate to reach the right confluence and differentiate until the formation of the intestinal epithelium mimetic monolayer. The test substance permeability was measured in both directions (apical to basolateral [A→B] and basolateral to apical [B→A]) across the cell monolayer. The assay was carried out in HBSS transport medium at pH 7.4. Test substance at single concentration (10 μM) was tested in duplicate at one time point (60 min). Monolayer integrity of Caco-2 cells was evaluated by TEER measurements during the experiment and by Lucifer Yellow test after the incubation with the test compound. The concentrations of the test substance and/or reference controls were measured by LC-MS/MS.
When the inhibitor leads the efflux ratio to a significant reduction (>50%) or to unity, the test compound is classified as a probable substrate of that efflux transporter. As control, the modulation of the efflux ratio of a reference known substrate (Digoxin) was evaluated with or without the respectively inhibitors in every experiment. […] In parallel, mass balance (%) of recovered test substance was also determined. […] Outside these ranges the permeability data is not reliable.

[4] = Blood-brain barrier permeability (PAMPA-BBB); format: in vitro ADME; conditions: for Papp: PBS pH 7.4, read-out: BBB-Pe; for CNS Class: classified by Pe; for permeability (Pe) times higher compared to tolcapone: relative to tolcapone
Experimental: (§1) The assay combines solubility and a non-cell-based Blood Brain Barrier permeability assay (Parallel Artificial Membrane Permeation Assay; PAMPA-BBB) into a single workflow in which a portion of the filtrate from the Solubility filter plate is added to the donor compartment of the MultiScreen filter plate for the PAMPA-BBB analysis. […] Solutions were filtered into a 96-well collection plate using vacuum filtration and then analysed by UV/Vis spectroscopy. The relative solubility was then calculated using the sum of the recorded values as compared to a standard calibration curve. […] PAMPA-BBB determination was carried out in a 96-well MultiScreen Permeability plate and the ability of a compound to diffuse from a Donor to an Acceptor compartment separated by a Porcine Brain Lipid Extract (PBLE) dissolved in dodecane (20 mg/mL) layer on a PVDF membrane support was measured. The assay was performed in duplicate in PBS at pH 7.4 and the analysis is carried out by UV/Vis spectroscopy.
The compounds are classified into 2 types: CNS+ compounds that can cross the BBB and CNS- compounds that cannot according to the Pe values (BBB−, Pe < 2 × 10^−6 cm/s; BBB +/−, 2 × 10^−6 cm/s < Pe < 4 × 10^−6 cm/s; BBB+, Pe > 4 × 10^−6 cm/s).
Membrane retention is also evaluated according to Equation (1), (1) 1−Rm=CAccVAcc+CDonorVDonor/Sol×VDonor where Rm is the membrane retention factor. 1 − Rm between 1.2 and 0.8 is considered fully acceptable for the reliability of the results.

[5] = Kinetic solubility in PBS; format: physicochemical; conditions: Phosphate Buffered Saline (PBS), aqueous buffer, kinetic from dmso stock, PBS pH 7.4, 1% DMSO
Experimental: as §1

[6] = target: TTR (Homo sapiens, UniProt P02766); experiment: TTR tetramer stability in diluted human plasma with urea, by immunoblotting; format: biochemical; design: from tissue; host or cells: human plasma; conditions: 4 M urea, versus DMSO control
Experimental: The TTR tetramer stability assay in the presence of urea and TTR ligands was performed according to a previously reported Western Blot procedure, with some modifications as follows. Aliquots of human plasma were diluted 8-fold in sodium phosphate buffer (NaP 40 mM, NaCl 150 mM pH 7.4) supplemented with 2 µM or 20 µM of each ligand. A plasma aliquot supplemented with DMSO was used as a negative control. After 2 h of incubation at 20 °C, an equal volume of 8 M urea in sodium phosphate buffer was added to obtain a final 4 M urea concentration and final ligand concentration of 1 µM or 10 µM. Incubation was prolonged for 18 h at 20 °C, followed by non-denaturing SDS-PAGE using Tris-Glycine buffers containing 0.025% of SDS in the running buffer and 0.2% of SDS in the Laemmli buffer. […] Blotting was accomplished with a Trans-Blot SD transfer apparatus (BIORAD), followed by incubation of nitrocellulose membranes with blocking buffer containing 5% skim milk overnight at 25 °C. Immunodetection of TTR monomers was performed by employing rabbit anti-human TTR polyclonal antibody (Dako) as a primary and goat anti-rabbit antibody labelled with DyLight 680 ([…]) as a secondary. Western Blot images were recorded by using ChemiDoc MP imaging system (BIORAD) and analysed with Image Lab software v. 5.1 (BIORAD). The experiment was performed in triplicate, and ligands stabilisation capability was evaluated as the relative intensity of the TTR monomer in each condition in comparison to the negative control. Statistical analyses by means of ANOVA and graphic representations were performed with GraphPad Prism.

| CHI (pH 2.0) [1] | CHI (pH 7.4) [1] | CHI (pH 10.5) [1] | recovery at 60 min, 10 µM ([3]; Caco-2, pH 7.4, A→B) [%] | recovery at 60 min, 10 µM ([3]; Caco-2, pH 7.4, B→A) [%] | efflux ratio at 60 min, 10 μM [3] | Papp A→B at 60 min, 10 μM [3] [×10⁻⁶ cm/s] | Papp B→A at 60 min, 10 μM [3] [×10⁻⁶ cm/s] | 1-Rm (membrane retention) [4] | Papp [4] [×10⁻⁶ cm/s] | CNS Class [4] | permeability (Pe) times higher compared to tolcapone [4] [times] | solubility [5] [µM] | relative abundance of TTR monomer ([6]; ligand 1 µM) | relative abundance of TTR monomer ([6]; ligand 10 µM) [%] | Compound | EC50 [2] [µM] |
| --- | --- | --- | --- | --- | --- | --- | --- | --- | --- | --- | --- | --- | --- | --- | --- | --- |
| 89.2 | 50.2 | 46.0 | 66 ± 4 | 83 ± 8 | 1.5 | 16 ± 2.9 | 24.3 ± 3 | 0.9 | 14.4 | CNS+ (BBB+, Pe > 4 × 10^−6 cm/s) | 2.5 | > 500 | 14% and 14.1 ± 1.8% | 9.4 ± 1.5 | COc1cc(C(=O)c2ccc(C)cc2)cc([N+](=O)[O-])c1O [3-OMT, 3-O-methyltolcapone] | 262 ± 20.7 |
| 96.1 | 53.8 | 50.2 | 69 ± 8 | 80 ± 9 | 1 | 25 ± 0.3 | 26.8 ± 2.5 | 1.0 | 13.5 | CNS+ (BBB+, Pe > 4 × 10^−6 cm/s) | 2.5 | > 500 | 7% and 7.5 ± 0.4% | 9.2 ± 1.5 | COc1cc(C(=O)c2ccc(C)cc2C)cc([N+](=O)[O-])c1O [Compound 2, (4-Hydroxy-3-methoxy-5-nitrophenyl)-1-(2,4-dimethylphenyl)methanone] | 216 ± 2.2 |
| 97.8 | 55.5 | 51.7 | 64 ± 4 | 77 ± 2 | 1 | 24 ± 2.1 | 23.1 ± 2.3 | 0.9 | 15.3 | CNS+ (BBB+, Pe > 4 × 10^−6 cm/s) | 2.5 | > 500 | 17% and 17.2 ± 2.1% | 9.5 ± 2.8 | COc1cc(C(=O)c2cc(C)cc(C)c2)cc([N+](=O)[O-])c1O [Compound 1, (4-Hydroxy-3-methoxy-5-nitrophenyl)-1-(3,5-dimethylphenyl)methanone] | 410 ± 33 |
